According to US11325937B2, “Glycoside compound and preparation method therefor, composition, application, and intermediate” (SHANGHAI HUTCHISON PHARMACEUTICALS LIMITED, priority 2018, dated 2022):

Assays:
[1] = system: rats with middle cerebral artery occlusion (MCAO); assay: Acute cerebral infarction model in rats with middle cerebral artery occlusion (MCAO); type: in vivo, male SD rats; conditions: for ED50: Rattus norvegicus, ip, 72 h, intraperitoneal injection, TTC staining after 3 days, read-out: ED50 for infarction inhibition rate (%); for Longa nerve scoring, protective effect on nerves (in words): FIG. 5
In short: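 Male SD rats (280-320 g) with thread-occlusion MCAO; compound given i.p. 2 h pre-surgery and every 24 h after, 5 rats/group. At day 3, TTC-stained brain sections gave infarction rate and inhibition rate vs model, with ED50 from dose-response; body weight, Longa neuro score, brain water content and Evans Blue BBB permeability also assessed.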

[2] = system: HUVEC-12 endothelial cells; assay: Tubule formation of HUVEC-12 endothelial cells (Matrigel); type: cell-based, Human
Protocol: The experiment included seven groups. In Group 1, HUVEC-12 endothelial cells (purchased from Shanghai RongChuang Biotech Co., Ltd.) were treated directly with simple DMEM medium (Gibcol, Shanghai) containing 10% FBS (SERANA, Germany) (control). In Group 2, the endothelial cells were treated with the supernatant obtained 24 h after macrophages were cultured with DMEM medium containing 10% FBS (s-control). In Group 3, the endothelial cells cultured with DMEM medium containing 10% FBS were treated directly with TG-028 (TG-028, 10 μM). In Group 4, the endothelial cells were treated with the supernatant obtained after macrophages cultured with DMEM medium containing 10% FBS were treated and co-incubated with TG-028 for 24 h (s-TG-028, […]). In Group 5, the endothelial cells cultured with DMEM medium containing 10% FBS were treated directly with Cpd-18 (Salvianolate) (cpd-18, 10 μM). In Group 6, the endothelial cells were treated with the supernatant obtained after macrophages cultured with DMEM medium containing 10% FBS were treated and co-incubated with Cpd-18 (Salvianolate, 10 μM) for 24 h (s-cpd18). In Group 7, the endothelial cells cultured with DMEM medium containing 10% FBS were treated directly with VEGFD (Recombinant Human VEGF165, 10 ng/mL).
A 96-well plate and sterile yellow pipette tip were stored overnight in a refrigerator at −20° C. The packed Matrigel was thawed overnight in a refrigerator at 4° C. before the experiment. On the following day, the Matrigel thawed was centrifuged for a few minutes. 60 μL per well of the pre-cooled Matrigel was added to a 96-well plate in an ice bath on a ultra-clean bench, and then allowed to stand in an incubator for 1 h. After Matrigel was solidified, HUVEC-12 cells in logarithmic growth phase were taken and adjusted for the cell density. The cells were well mixed with each group of medium at a density of 5×10^4 cells/well and inoculated into a 96-well plate. […] The tube-like structure was analyzed by ImageJ image-analysis software, and the tube formation ability was evaluated using number of master junction as a quantitative index.

SMILES | effect on inhibiting cerebral infarction (in words) ([1]; MCAO, compared with the control drugs) | ED50 ([1]; MCAO) | water content in brain, effect on reducing cerebral edema (in words) ([1]; TG-028 5 mg/Kg, three days after MCAO, FIG. 6A) | integrity of blood-brain barrier, Evans Blue (in words) ([1]; TG-028 5 mg/Kg, three days after MCAO, FIG. 6B) | Longa nerve scoring, protective effect on nerves (in words) ([1]; three days after MCAO) | rate of body weight change, protection (in words) ([1]; three days after brain injury, FIG. 3) | effect on tube formation of endothelial cells (in words) ([2]; HUVEC-12 treated with supernatant of macrophages co-incubated 24 h with compound, 10 μM (s- groups)) | effect on tube formation of endothelial cells (in words) ([2]; direct treatment of HUVEC-12, 3 h, compounds 10 μM, VEGF165 10 ng/mL, vs control medium)
COc1ccc(CCCCO[C@@H]2O[C@H](CO)[C@@H](O)[C@H](O)[C@H]2O)cc1 [TG-028] | most potent effect on inhibiting cerebral infarction in rats | 2.61 mg/kg | better effect on reducing cerebral edema after acute brain injury of MCAO in rats than Edaravone, Clopidogrel bisulfate, and Salvianolate | better protective effect on blood-brain barrier after acute brain injury of MCAO in rats than Edaravone and Salvianolate | equivalent to that of Edaravone, Clopidogrel bisulfate, and Salvianolate | significant protection for rats in terms of the body weight after brain injury | comparable effect on the tube formation of endothelial cells as VEGF | significant effect on the tube formation of endothelial cells
OC[C@H]1O[C@@H](OCCc2ccccc2)[C@H](O)[C@@H](O)[C@@H]1O [TG-055] |  | 65.3 mg/kg |  |  | equivalent to that of Edaravone, Clopidogrel bisulfate, and Salvianolate |  |  | 
